Source: patent US11578055B2, “Triazacyclododecansulfonamide (“TCD”)-based protein secretion inhibitors” (KEZAR LIFE SCIENCES, priority 2018, dated 2023)

Columns and labels:
[1] = system: PD1 signal sequence plus 10 amino acids fused to Gaussia Luciferase (PD1-ss+10aa/Gaussia Luciferase); assay: Dox Induced PD1-ss-Gluc Assay; assay type: cell-based; conditions: 24 hr, Dox inducible, 293FRT/TO cells; read-out: 24 hr Dox Inducible PD1ssGluc 293FRT/TO: Mean IC50
In short: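 Stable Flp-In 293 T-REx line expressing the fusion under tetracycline-inducible control, plated the day before assay. Compound dilutions added with doxycycline and incubated at 37 °C, 5% CO2; unspecified stereocentres mean data refer to stereoisomer mixtures.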

[2] = system: full length TNFα (amino acids 1-233) fused to Gaussia Luciferase; assay: Dox Induced TNFα-FL-Gluc Assay; assay type: cell-based; conditions: 24 hr, Dox inducible, 293FRT/TO cells; read-out: 24 hr Dox Inducible TNFaFLGluc 293FRT/TO: Mean IC50
In short: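 Stable Flp-In 293 T-REx line expressing doxycycline-inducible full-length TNFα fused to Gaussia luciferase; cells plated the day before, then treated with compound dilutions in doxycycline-containing medium at 37° C, 5% CO2. Unspecified stereocentres mean stereoisomer mixtures were tested.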

[3] = system: full length IL-2 (amino acids 1-153) fused to Gaussia Luciferase; assay: Dox Induced IL2-FL-Gluc Assay; assay type: cell-based; conditions: 24 hr, Dox inducible, 293FRT/TO cells; read-out: 24 hr Dox Inducible IL2FLGluc 293FRT/TO: Mean IC50
In short: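 Flp-In 293 T-REx stable line expressing full-length IL-2 (aa 1-153) with C-terminal Gaussia luciferase fusion under doxycycline-inducible control. Cells plated the day before; compound dilutions added in DMSO/media containing doxycycline, incubated at 37° C, 5% CO2.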

[4] = system: multiple myeloma cell line NCl-H929; assay: H929 Cell Viability Assay; assay type: cell-based, human; conditions: Homo sapiens, NCI-H929, 48 h, H929, Celltiter-Glo
In short: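 NCI-H929 myeloma cells in RPMI 1640 with 10% FBS were treated with compound dilutions for 48 h at 37 °C, and viability was then read by CellTiter-Glo luminescence. Compounds drawn without stereochemistry were tested as stereoisomer mixtures.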

[5] = system: multiple myeloma cell line U266B1; assay: U266 Cell Viability Assay; assay type: cell-based, human; conditions: Homo sapiens, U-266; 48 hr, U266, Celltiter-Glo
In short: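 U266B1 myeloma cells in RPMI 1640 with 10% FBS were treated with compound dilutions for 48 h at 37° C, 5% CO2. Viability was read as CellTiter-Glo luminescence. Data for structures drawn without stereochemistry refer to stereoisomer mixtures.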

[6] = In Vitro Microsome Stability Assay (human); assay type: in vitro ADME; conditions: human liver microsomes, 30 min w/ NADPH
In short: (§1)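 Test article, added from a 0.25 mM DMSO stock, was incubated with liver microsomes (20 mg/mL stock) in 0.1 M potassium phosphate at 37° C, with the reaction started by NADPH. Samples were quenched with acetonitrile containing internal standard at 0 and 30 min and analysed by LC-MS/MS. Values are % remaining at 30 min versus 0 min, using IS-normalised AUC ratios.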

[7] = In Vitro Microsome Stability Assay (mouse); assay type: in vitro ADME; conditions: mouse liver microsomes, 30 min w/ NADPH
In short: as §1

[8] = In Vitro Microsome Stability Assay (rat); assay type: in vitro ADME; conditions: rat liver microsomes, 30 min w/ NADPH
In short: as §1

[9] = In Vitro Microsome Stability Assay (monkey); assay type: in vitro ADME; conditions: monkey liver microsomes, 30 min w/ NADPH
In short: as §1

Row | IC50 [1] | IC50 [2] | IC50 [3] | EC50 [4] | EC50 [5] | Liver Microsome Stability-% Left after 30 min w/ NADPH (%) Human [6] | Liver Microsome Stability-% Left after 30 min w/ NADPH (%) Mouse [7] | Liver Microsome Stability-% Left after 30 min w/ NADPH (%) Rat [8] | Liver Microsome Stability-% Left after 30 min w/ NADPH (%) Monkey [9] | Compound
1 | 201 nM | 2660 nM | 412 nM | 6500 nM | > 25000 nM | 5.68% | 18.3% | 9.19% | 73% | C[C@H]1CN(S(=O)(=O)c2ccc(N(C)C)cc2)CCCN(CC(F)(F)F)CCCN(S(=O)(=O)N2CCc3cc(Cl)ccc3C2)C1 [A167, 4-{[(3S)-5-[(6-chloro-1,2,3,4-tetrahydroisoquinolin-2-yl)sulfonyl]-3-methyl-9-(2,2,2-trifluoroethyl)-1,5,9-triazacyclododecan-1-yl]sulfonyl}-N,N-dimethylaniline]
2 | 1150 nM | > 25000 nM | 1560 nM | > 25000 nM | > 25000 nM | 0.22% | 0.1% | 2.18% | 0.04% | C[C@H]1CN(S(=O)(=O)c2ccc(N(C)C)cc2)CCCN(CC2CCCCC2)CCCN(S(=O)(=O)N2CCN(C(=O)c3ccccc3)CC2)C1 [A100, 4-{[(3S)-5-[(4-benzoylpiperazin-1-yl)sulfonyl]-9-(cyclohexylmethyl)-3-methyl-1,5,9-triazacyclododecan-1-yl]sulfonyl}-N,N-dimethylaniline]
3 | 220 nM | 3430 nM | 564 nM | > 25000 nM | > 25000 nM | 30.2% | 20.8% | 25.4% | 18.8% | C[C@H]1CN(S(=O)(=O)c2ccc(N(C)C)cc2)CCCN(CC2CCCCC2)CCCN(S(=O)(=O)N2CC(c3ccccc3)C2)C1 [A101, 4-{[(3S)-9-(cyclohexylmethyl)-3-methyl-5-[(3-phenylazetidin-1-yl)sulfonyl]-1,5,9-triazacyclododecan-1-yl]sulfonyl}-N,N-dimethylaniline]
4 | 52.4 nM | 1120 nM | 126 nM | 903 nM | > 25000 nM | 7.18% | 8.81% | 18.9% | 30.7% | CCC(C)CN1CCCN(S(=O)(=O)c2ccc(N(C)C)cc2)C[C@H](C)CN(S(=O)(=O)N2CCc3cc(Cl)ccc3C2)CCC1 (stereo partly drawn) [A106, 4-{[(3S)-5-[(6-chloro-1,2,3,4-tetrahydroisoquinolin-2-yl)sulfonyl]-3-methyl-9-(2-methylbutyl)-1,5,9-triazacyclododecan-1-yl]sulfonyl}-N,N-dimethylaniline]
5 | 52.3 nM | 1080 nM | 170 nM | 7680 nM | > 25000 nM | 71.7% | 50.8% | 66.1% | 53.9% | Cc1cccc(C)c1N1CCN(S(=O)(=O)N2CCCN(CC3CCCCC3)CCCN(S(=O)(=O)c3ccc(N(C)C)cc3)C[C@H](C)C2)CC1 [A119, 4-{[(3S)-9-(cyclohexylmethyl)-5-{[4-(2,6-dimethylphenyl)piperazin-1-yl]sulfonyl}-3-methyl-1,5,9-triazacyclododecan-1-yl]sulfonyl}-N,N-dimethylaniline]
